According to US8530423B2, “Anxiolytic compositions containing αs1-casein-derived peptides” (Universite de Lorraine, priority 2008, dated 2013):
Like-named read-outs stand apart in the source and are kept apart here. No end group written: not given here.

Legend:
[1] = literature (ZIOUDROU et al., LOUKAS et al.); cited from earlier work
rat [2] = conditions: PCT/EP2007/063863; cited from earlier work
[3] = target: angiotensin-I converting enzyme (Homo sapiens, UniProt P12821); conditions: literature (MARUYAMA et al.); cited from earlier work
Chain of angiotensin-I converting enzyme (P12821 30-1306): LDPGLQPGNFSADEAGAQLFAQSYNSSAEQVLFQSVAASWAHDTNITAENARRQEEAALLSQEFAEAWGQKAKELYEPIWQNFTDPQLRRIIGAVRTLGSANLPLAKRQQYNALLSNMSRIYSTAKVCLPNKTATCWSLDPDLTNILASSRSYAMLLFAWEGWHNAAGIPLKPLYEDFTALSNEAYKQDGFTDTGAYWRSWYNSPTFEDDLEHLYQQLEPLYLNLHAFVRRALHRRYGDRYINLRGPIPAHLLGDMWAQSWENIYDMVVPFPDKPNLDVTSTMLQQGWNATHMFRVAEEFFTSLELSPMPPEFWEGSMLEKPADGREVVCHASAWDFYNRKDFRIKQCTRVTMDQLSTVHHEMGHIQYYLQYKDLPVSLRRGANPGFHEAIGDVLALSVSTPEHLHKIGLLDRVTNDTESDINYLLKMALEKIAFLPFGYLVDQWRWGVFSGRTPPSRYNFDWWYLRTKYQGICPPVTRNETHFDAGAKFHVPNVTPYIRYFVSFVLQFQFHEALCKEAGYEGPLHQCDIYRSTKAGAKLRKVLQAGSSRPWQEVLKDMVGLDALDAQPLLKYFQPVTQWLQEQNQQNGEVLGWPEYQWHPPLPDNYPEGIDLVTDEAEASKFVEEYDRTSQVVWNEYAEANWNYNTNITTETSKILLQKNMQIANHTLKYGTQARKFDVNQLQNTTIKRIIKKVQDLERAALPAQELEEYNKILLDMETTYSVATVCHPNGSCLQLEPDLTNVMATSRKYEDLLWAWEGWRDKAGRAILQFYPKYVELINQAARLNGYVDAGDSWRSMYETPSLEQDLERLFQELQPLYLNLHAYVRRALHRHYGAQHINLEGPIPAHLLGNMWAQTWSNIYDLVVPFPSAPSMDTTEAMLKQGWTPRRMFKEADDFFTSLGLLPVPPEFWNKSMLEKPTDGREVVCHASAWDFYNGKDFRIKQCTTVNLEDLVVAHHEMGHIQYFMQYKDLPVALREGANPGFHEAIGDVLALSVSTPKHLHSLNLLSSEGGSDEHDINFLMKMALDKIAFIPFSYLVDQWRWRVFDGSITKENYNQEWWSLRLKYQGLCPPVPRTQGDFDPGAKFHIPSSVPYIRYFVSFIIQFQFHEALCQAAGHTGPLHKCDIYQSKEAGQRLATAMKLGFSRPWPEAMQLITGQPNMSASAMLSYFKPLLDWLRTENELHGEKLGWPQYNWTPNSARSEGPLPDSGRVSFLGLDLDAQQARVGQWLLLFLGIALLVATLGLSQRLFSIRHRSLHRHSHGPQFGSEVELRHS

Wistar rat [4] = experiment: Elevated cross maze test; type: in vivo; conditions: for number of entries into the open arms / time spent in the open arms: p<0.05
From the text: The elevated cross maze test enables the density of the exploratory behavior in a new aversive situation to be measured [PELLOW et al., 1985 (16)]. The experiment exploits the conflict, in rodents, between the fear of open spaces and the desire to explore a new environment. The rat, placed at the center of the device, is forced to explore its environment. The open arms constitute an anxiety-producing environment, while this is not the case for the closed arms. The number of entries into all of the arms, the number of entries into the open arms, the number of entries into the closed arms, the time spent in the open arms, and the latency of entry into the first open arm constitute parameters reflecting the degree of anxiety of the animal.
The elevated cross maze, made of wood, consists of four branches at 90° to one another. The two open branches (45×10 cm) and the two closed branches (45×10 cm, surrounded by wood plates over a height of 40 cm) are arranged opposite one another. The central square measures 10×10 cm. The open branches are illuminated by a white light with an intensity of 500 lx. The elevated cross maze is located 50 cm from the ground.
The observations took place at between 9 and 11 o'clock in the morning in order to minimize the influence of the circadian rhythm. Before each passage through the elevated cross maze, the animal is placed for 10 minutes in an open field in order to stimulate its exploratory behavior. It is then placed in the central square of the elevated cross maze, and observed for 5 minutes. The cross maze is washed with 95% ethanol (v/v) between two passages so as to remove odors.
The animals receive their respective treatment intraperitoneally one-half hour before being placed in the open field.

Wistar rat [5] = experiment: Light/dark box test; type: in vivo; conditions: for time spent in the familiar compartment / time spent in the unfamiliar, aversive compartment: p<0.05, n=12
From the text: The light/dark tests are based on the innate aversion of rodents for strongly illuminated environments and on their spontaneous exploratory behavior in response to mild stress factors such as a new environment and light. The light/dark box device enables the exploratory behavior of the rodent to be studied with regard to an unfamiliar aversive compartment (strongly illuminated with white light) after habituation in a non-aversive compartment (dark), which then becomes familiar [BOURIN and HASCOET, 2003 (17)]. Classic anxiolytics can be detected by using this device.
The light/dark box measures 65×49×35 cm (h×L×l) and is separated into two identical compartments by a plate with three 8×8-cm doors. The ground is covered with sawdust. Each rat is placed for 24 hours in the rear compartment of the box, and the doors communicating with the front compartment are made inaccessible. The rear compartment thus becomes the familiar compartment. The animal is fed and hydrated ad libitum. On the day of the test, the rat, after treatment, is again placed in the familiar compartment and the doors communicating with the front compartment (unfamiliar) are made accessible so that the animal can freely explore the environment. The unfamiliar compartment is made aversive by illumination with white light having an intensity of 1500 lx. The animals are observed for 10 minutes and the time spent in each of the compartments is measured.
The animals receive their respective treatments intraperitoneally one-half hour before the communication between the familiar compartment and the unfamiliar compartment is opened.

rat [6] = experiment: in vivo behavioral tests in the rat; conditions: this application
[7] = EP 0714910; cited from earlier work
[8] = vehicle animals compared with animals treated 1 mg/kg intraperitoneally, n=15
[9] = vehicle animals compared with animals treated 1 mg/kg intraperitoneally
[10] = 0.5 mg/kg i.p. versus diazepam 1 mg/kg i.p.
[11] = 0.5 mg/kg intraperitoneally, Wistar rat
[12] = vehicle animals compared with animals treated 0.5 mg/kg intraperitoneally, n=15
[13] = vehicle animals compared with animals treated 0.5 mg/kg intraperitoneally

90-95: αs1-casein peptide 90-95 (RYLGYL; UniProt P02662 105-110, looked up, fragment) [reference compound]
in vitro opiate activity [1]: demonstrated in vitro opiate activity

90-96: αs1-casein peptide 90-96 (RYLGYLE; UniProt P02662 105-111, looked up, fragment) [reference compound]
in vitro opiate activity [1]: demonstrated in vitro opiate activity

91-97: peptide 91-97 derived from decapeptide, not containing arginine 100 (YLGYLEQ; UniProt P02662 106-112, looked up, fragment)
anxiolytic properties (rat [2]): show anxiolytic properties

91-98: peptide 91-98 derived from decapeptide, not containing arginine 100 (YLGYLEQL; UniProt P02662 106-113, looked up, fragment)
anxiolytic properties (rat [2]): show anxiolytic properties

91-99: peptide 91-99 derived from decapeptide, not containing arginine 100 (YLGYLEQLL; UniProt P02662 106-114, looked up, fragment)
anxiolytic properties (rat [2]): show anxiolytic properties

194-199: αs1-casein peptide 194-199 (TTMPLW; UniProt P02662 209-214, looked up, fragment)
angiotensin-I converting enzyme inhibition [3]: angiotensin-I converting enzyme inhibitors

CN1C(=O)CN=C(c2ccccc2)c2cc(Cl)ccc21 [diazepam, reference compound]
number of entries into the open arms (Wistar rat [4]; [8]): significantly lower | time spent in the open arms (Wistar rat [4]; [8]): significantly lower | time spent in the familiar compartment (Wistar rat [5]; [9]): increases significantly | time spent in the unfamiliar, aversive compartment (Wistar rat [5]; [9]): significantly lower

Tyr-Leu-Gly-Tyr-Leu (YLGYL; listed as Bos taurus) [αs1-casein fragment 91-95, Pentapeptide corresponding to positions 91-95 of αs1-casein]
difference versus diazepam in the elevated cross maze (Wistar rat [4]; [10]): No significant difference | number of entries into all of the arms (exploratory activity) (Wistar rat [4]; 0.5 mg/kg intraperitoneally one-half hour before open field, compared between treatments, n=15): not significantly different | action in the elevated cross maze test (Wistar rat [4]; [11]): an action similar to that of diazepam, i.e. an increase in the exploration of anxiety-producing zones | number of entries into the open arms (Wistar rat [4]; [12]): significantly lower | time spent in the open arms (Wistar rat [4]; [12]): significantly lower | difference versus diazepam in the light/dark box (Wistar rat [5]; [10]): No significant difference | action in the light/dark box test (Wistar rat [5]; [11]): anxiolytic-type action similar to that of diazepam | time spent in the familiar compartment (Wistar rat [5]; [13]): increases significantly | time spent in the unfamiliar, aversive compartment (Wistar rat [5]; [13]): significantly lower | anxiolytic properties (rat [6]): possible to demonstrate the anxiolytic properties | in vitro opiate activity [1]: practically inactive

YLGYLE [91-96, Hexapeptide corresponding to positions 91-96 of αs1-casein]
anxiolytic properties (rat [6]): possible to demonstrate the anxiolytic properties | in vitro opiate activity [1]: practically inactive

α-casozepine: αs1-casein fragment 91-100, decapeptide from αs1-casein tryptic hydrolysate (YLGYLEQLLR; UniProt P02662 106-115, looked up, fragment)
anxiolytic activity [7]: original anxiolytic activity
